In publication PMC8868331, “Hydroxamic Acid as a Potent Metal-Binding Group for Inhibiting Tyrosinase” (Antioxidants, 2022):
Like-named read-outs stand apart in the source and are kept apart here.

Experiments:
[1] = biological target: mushroom tyrosinase from Agaricus bisporus (Agaricus bisporus, UniProt C7FF04); experiment: Enzyme-activity assay with mushroom tyrosinase, L-DOPA substrate, dopachrome absorbance at 475 nm; assay type: biochemical
tyrosinase [2] = biological target: tyrosinase (Agaricus bisporus, UniProt C7FF04); experiment: Enzyme-inhibitory kinetics (Michaelis-Menten fitting with inhibition models); assay type: biochemical, mushroom; details: for Kinetics model (mode of inhibition): model chosen by F-test on reduced χ2
Chain of tyrosinase (Agaricus bisporus, UniProt C7FF04) (C7FF04 1-392): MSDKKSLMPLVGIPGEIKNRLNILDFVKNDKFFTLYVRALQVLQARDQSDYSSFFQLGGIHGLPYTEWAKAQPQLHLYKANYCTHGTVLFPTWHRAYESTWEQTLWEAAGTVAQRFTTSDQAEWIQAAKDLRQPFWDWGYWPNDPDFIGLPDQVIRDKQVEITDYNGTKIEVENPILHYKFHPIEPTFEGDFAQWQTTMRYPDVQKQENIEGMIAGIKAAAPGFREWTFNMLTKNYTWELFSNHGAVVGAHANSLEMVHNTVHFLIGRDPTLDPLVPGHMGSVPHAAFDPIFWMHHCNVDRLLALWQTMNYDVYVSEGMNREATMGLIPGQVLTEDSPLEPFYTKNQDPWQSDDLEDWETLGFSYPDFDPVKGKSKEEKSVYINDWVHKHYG
Method: Enzyme-inhibitory kinetics—Upon varying the substrate and inhibitor concentrations, the rates of product generation were measured. Simultaneous nonlinear fitting of all the profiles in an inhibitor was performed by minimizing the ꭓ^2-value, the sum of the squared differences in theoretical and experimental values, in the Michaelis–Menten equations assuming competitive, uncompetitive, noncompetitive, and mixed models. […] Reduced ꭓ^2-values, ꭓ^2-values divided by the difference in the numbers of input data and fitting parameters, were compared between the models based on the F-test to identify the most appropriate model.
The inhibitory kinetic experiments provide information for understanding the inhibition by small molecules. The rates of product generation were measured for a series of paired substrate and inhibitor concentrations. Subsequent nonlinear fitting using the Michaelis−Menten equations extended with inhibitory models and constants produced the inhibition mode and the binding constant.
Figure 4F lists the parameters for inhibition. […] However, one should be careful not to overinterpret the simulated modes and Ki values. The modes were chosen using the F-test, comparing reduced χ^2-values from each model.

[3] = system: indoleamine 2,3-dioxygenase; set-up: method as in PMID 26717206; details: cited from earlier work
[4] = biological target: T1, mammalian tyrosinase in B16F10 cell lysates (Mus musculus, UniProt P11344); experiment: Cell-lysate-based tyrosinase activity assay; assay type: biochemical, murine; details: 50 μM, relative to untreated control
T1 construct: The cell extracts having tyrosinase activity were prepared; host or cells: B16F10 murine melanoma cells, stimulated with 3-isobutyl-1-methylxanthine, lysate
T1 sequence (P11344 19-533): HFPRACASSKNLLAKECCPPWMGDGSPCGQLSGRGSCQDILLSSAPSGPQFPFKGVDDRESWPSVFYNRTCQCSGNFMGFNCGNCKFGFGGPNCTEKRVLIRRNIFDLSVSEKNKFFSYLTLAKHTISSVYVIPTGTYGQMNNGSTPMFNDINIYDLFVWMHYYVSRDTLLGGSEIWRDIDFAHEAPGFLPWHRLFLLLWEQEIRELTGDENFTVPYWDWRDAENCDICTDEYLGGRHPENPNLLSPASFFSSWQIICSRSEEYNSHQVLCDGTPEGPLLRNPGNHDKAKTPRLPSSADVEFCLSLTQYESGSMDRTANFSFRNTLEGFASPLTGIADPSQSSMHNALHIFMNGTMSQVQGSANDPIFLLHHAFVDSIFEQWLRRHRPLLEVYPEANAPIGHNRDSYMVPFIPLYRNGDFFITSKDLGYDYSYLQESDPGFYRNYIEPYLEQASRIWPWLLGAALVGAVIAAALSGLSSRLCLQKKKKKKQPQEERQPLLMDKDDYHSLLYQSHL
Method: Cell-lysate-based activity assays with inhibitors—Cell-lysate-based assays were performed using B16F10 murine melanoma cells obtained from the Korean Cell Line Bank (Seoul, Korea). The B16F10 cells were grown to a density of 1 × 10^5 cells in Dulbecco’s modified Eagle’s medium supplemented with 10% fetal bovine serum and 1% penicillin−streptomycin at 37 °C under 5% CO2. The cells were incubated for 48 h after the addition of 100 μM 3-isobutyl-1-methylxanthine. The cell extracts having tyrosinase activity were prepared.
The melanin quantification assay and the cell-lysate-based activity assay were used for confirming the inhibition of mammalian tyrosinases. Unfortunately, quantifying melanin content using hydroxamate-containing molecules is not feasible because anticancer agents affect cell viability. Therefore, we evaluated tyrosinase activities using B16F10 cell lysates in a small-molecule-concentration-dependent manner.

[5] = system: arachidonate 5-lipoxygenase; set-up: method as in PMID 3820229; details: cited from earlier work
mandelate racemase = system: mandelate racemase; set-up: method as in PMID 17055725; details: cited from earlier work
carbonic anhydrase = system: carbonic anhydrase; set-up: method as in PMID 22836518; details: cited from earlier work
mushroom tyrosinase = mushroom tyrosinase (Agaricus bisporus, UniProt C7FF04); experiment: Differential scanning fluorimetry (DSF) with SYPRO Orange; assay type: binding; details: 500 μM inhibitor; for Tm: mean ± SD of three experiments, DMSO control 49.16
Chain of mushroom tyrosinase (C7FF04 1-392 limits assumed): as the sequence (C7FF04 1-392) above
Method: Differential scanning fluorimetry—Differential scanning fluorimetry (DSF) was used to characterize the direct binding of inhibitors to tyrosinase. In the absence and presence of 500 μM inhibitor, SYPRO® Orange was added to the enzyme solution. […] Time- and temperature-dependent signals were observed using the RT-PCR CFX96 system from BioRad (Hercules, CA, USA). The following equation was nonlinearly minimized to determine the mid-point melting temperature (Tm). I(T)=LL+UL−LL/[1+exp(Tm−T/a)] where UL and LL indicate the top and baseline of the curves, respectively, and a indicates the steepness of the slope.
We used differential scanning fluorimetry (DSF) to verify whether active small molecules identified by biochemical assays bound to tyrosinase directly. DSF was used to evaluate the fluorescence profiles of the dye SYPRO® Orange in a mixture with the protein upon elevating the temperature. The alteration in the unfolding process in the presence of a direct binder can shift the DSF pattern.

tyrosinase [6] = details: cited from earlier work; for IC50: ChEMBL-registered tyrosinase inhibitor
[7] = shift toward lower temperature against DMSO
[8] = mushroom tyrosinase, concentration-dependent profile (Figure 2)

Chain of mushroom tyrosinase from Agaricus bisporus (C7FF04 1-392): as the sequence (C7FF04 1-392) above

Compound: CC(=O)NO [Acetohydroxamic acid]
- Ki ([1]; inhibitory constant converted from IC50 (Cheng-Prusoff), 5 nM enzyme, 500 μM L-DOPA, ± is SD from Monte-Carlo simulation, read-out: Ki): 38 ± 8 µM
- Kinetics model (mode of inhibition) (tyrosinase [2]): noncompetitive

Compound: O=C(NO)c1ccccc1 [Benzohydroxamic acid]
- Inhibition of indoleamine 2,3-dioxygenase (in words) [3]: μM range
- Decrease of tyrosinase activity [4]: approximately 97%
- Inhibition of arachidonate 5-lipoxygenase (in words) [5]: μM range
- Inhibition of mandelate racemase (in words) (mandelate racemase): μM range
- Ki [1]: 0.007 ± 0.001 µM
- Ki (tyrosinase [2]): 0.128 µM
- Kinetics model (mode of inhibition) (tyrosinase [2]): noncompetitive
- Inhibition of carbonic anhydrase (in words) (carbonic anhydrase): μM range
- Tm (mushroom tyrosinase): 47.15 ± 0.07 °C
- ΔTm (mushroom tyrosinase; shift toward lower temperature): 2.01 degrees
- ΔTm (mushroom tyrosinase; [7]): 2.01 °

Compound: CCCC(=O)NO [Butyrylhydroxamic acid]
- Ki ([1]; read-out: Ki): 32 ± 5 µM

Compound: Oc1ccc(-c2nc3ccccc3s2)c(O)c1 [CHEMBL1408767]
- IC50 (tyrosinase [6]; ref 61 (supplement ref 7)): 0.01 µM

Compound: CCN(CC)C(=O)/C=C/c1ccc(O)cc1O [CHEMBL4463984]
- IC50 (tyrosinase [6]; ref 62 (supplement ref 8)): 0.011 µM

Compound: NCC(=O)NO [Glycine hydroxamate]
- Inhibition of tyrosinase (in words) (tyrosinase [6]): comparable inhibitory activity to arbutin

Compound: CC(=O)NO [N-Hydroxyacetamide]
- Ki ([1]; inhibitory constant converted from IC50 (Cheng-Prusoff), 5 nM enzyme, 500 μM L-DOPA, read-out: Ki): > 1000 µM
- Inhibition of tyrosinase (in words) [1, 8]: scarcely inhibited

Compound: Cc1[nH]c2ccccc2c1CCNCc1ccc(/C=C/C(=O)NO)cc1 [Panobinostat]
- Ki values as worded in the text (words or range with mixed units) ([1]; mushroom tyrosinase): submicromolar range
- Ki ([1]; read-out: Ki): 0.04 ± 0.005 µM
- Kinetics model (mode of inhibition) (tyrosinase [2]): competitive
- Ki (tyrosinase [2]; simultaneous nonlinear fit, read-out: Ki (simulated inhibitory constant from kinetics fit)): 0.29 µM
- Tm (mushroom tyrosinase): 46.72 ± 0.06 °C
- ΔTm (mushroom tyrosinase; shift toward lower temperature): 2.44 degrees
- ΔTm (mushroom tyrosinase; [7]): 2.44 °

Compound: C/C=C1\NC(=O)[C@H]2CSSCC/C=C/[C@H](CC(=O)N[C@H](C(C)C)C(=O)N2)OC(=O)[C@H](C(C)C)NC1=O [Romidepsin]
- Inhibition of tyrosinase (in words) [1]: inhibited very weakly
- Ki [1]: > 500 µM

Compound: O=C(CCCCCN1C(=O)c2cccc3cccc(c23)C1=O)NO [Scriptaid]
- Ki [1]: 0.18 ± 0.021 µM
- Kinetics model (mode of inhibition) (tyrosinase [2]): competitive
- Tm (mushroom tyrosinase): 47.31 ± 0.07 °C
- ΔTm (mushroom tyrosinase; shift toward lower temperature): 1.85 degrees
- ΔTm (mushroom tyrosinase; [7]): 1.85 °

Compound: O=C(CCCCCCC(=O)NO)NO [Suberohydroxamic acid]
- Ki ([1]; read-out: Ki): 1 ± 0.2 µM

Compound: CC(/C=C/C(=O)NO)=C\[C@@H](C)C(=O)c1ccc(N(C)C)cc1 [Trichostatin A]
- Ki [1]: 1 ± 0.1 µM
- Ki (tyrosinase [2]; Ki for apo state (mixed model), first value, apo state): 4.5 µM
- Ki (tyrosinase [2]; Ki for holo state (mixed model), second value, holo state): 37 µM
- Kinetics model (mode of inhibition) (tyrosinase [2]): mixed
- Tm (mushroom tyrosinase): 46.55 ± 0.07 °C

Compound: O=c1cccccc1O [Tropolone]
- Ki ([1]; read-out: Ki): 0.043 ± 0.003 µM

Compound: CCCC(CCC)C(=O)O [Valproic acid]
- Inhibition of tyrosinase (in words) [1, 8]: inhibited very weakly
- Ki ([1]; read-out: Ki): > 500 µM
